# Source: US7138361B2, “Herbicidal heterocycles” (E. I. du Pont de Nemours and Company, priority 2000, dated 2006)
# What was measured:
# Format in all cases: in vivo
# [1] = tested on: barnyardgrass (Echinochloa crus-galli); assay: Test C flooded paddy test; settings: for Barnyardgrass plant response rating: Flooded Paddy, Rate 500 g/ha, scale 0 to 100, 0 no effect, 100 complete control; for Plant response rating, Barnyardgrass / Plant response rating (scale 0 to 100), Barnyardgrass: flooded paddy test; for Plant response rating, Barnyardgrass: scale 0 to 100 (0 no effect, 100 complete control); for Plant response rating (scale 0 to 100), Barnyardgrass: Rate 62 g/ha, visually evaluated after 12 to 14 days, 0 = no effect, 100 = complete control
# Summary of the method: (§1)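 Rice and three paddy weeds were grown to the 2-leaf stage under flooded conditions, then treated and kept in a greenhouse for 12–14 days. Response was rated visually against untreated controls on a 0–100 scale, where 100 is complete control.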
# [2] = tested on: smallflower flatsedge (Cyperus difformis); assay: Test C flooded paddy test; settings: for Flatsedge plant response rating: Flooded Paddy, Rate 500 g/ha, scale 0 to 100, 0 no effect, 100 complete control; for Plant response rating, Flatsedge / Plant response rating (scale 0 to 100), Flatsedge: flooded paddy test; for Plant response rating, Flatsedge: scale 0 to 100 (0 no effect, 100 complete control); for Plant response rating (scale 0 to 100), Flatsedge: Rate 62 g/ha, visually evaluated after 12 to 14 days, 0 = no effect, 100 = complete control
# Summary of the method: as §1
# [3] = tested on: rice (Oryza saliva); assay: Test C flooded paddy test; settings: for Rice plant response rating: Flooded Paddy, Rate 500 g/ha, scale 0 to 100, 0 no effect, 100 complete control; for Plant response rating, Rice / Plant response rating (scale 0 to 100), Rice: flooded paddy test; for Plant response rating, Rice: scale 0 to 100 (0 no effect, 100 complete control); for Plant response rating (scale 0 to 100), Rice: Rate 62 g/ha, visually evaluated after 12 to 14 days, 0 = no effect, 100 = complete control
# Summary of the method: as §1
# [4] = tested on: duck salad (Heteranthera limosa); assay: Test C flooded paddy test; settings: for Ducksalad plant response rating: Flooded Paddy, Rate 500 g/ha, scale 0 to 100, 0 no effect, 100 complete control; for Plant response rating, Ducksalad / Plant response rating (scale 0 to 100), Ducksalad: flooded paddy test; for Plant response rating, Ducksalad: scale 0 to 100 (0 no effect, 100 complete control); for Plant response rating (scale 0 to 100), Ducksalad: Rate 62 g/ha, visually evaluated after 12 to 14 days, 0 = no effect, 100 = complete control
# Summary of the method: as §1
# [5] = tested on: barnyardgrass (Echinochloa crus-galli); assay: Test B preemergence
# Description: (§2) Seeds selected from barnyardgrass (Echinochloa crus-galli), Surinam grass (Brachiaria decumbens), cocklebur (Xanthium strumarium), corn (Zea mays), crabgrass (Digitaria sanguinalis), giant foxtail (Setaria faberii), lambsquarters (Chenopodium album), morning glory (Ipomoea hederacea), pigweed (Amaranthus retroflexus), rice (Oryza saliva) and velvetleaf (Abutilon theophrasti) were planted and treated preemergence with test chemicals formulated in a non-phytotoxic solvent mixture which included a surfactant.
# (§3) At the same time, plants selected from these crop and weed species and also blackgrass (Alopecurus myosuroides), wheat (Triticum aestivum) and wild oat (Avena fatua) were treated with postemergence applications of test chemicals formulated in the same manner. Plants ranged in height from 2 to 18 cm (1- to 4-leaf stage) for postemergence treatments. Plant species in the flooded paddy test consisted of rice (Oryza saliva), smallflower flatsedge (Cyperus difformis), duck salad (Heteranthera limosa) and barnyardgrass (Echinochloa crus-galli) grown to the 2-leaf stage for testing. Treated plants and controls were maintained in a greenhouse for 13 to 15 days, after which time all species were compared to controls and visually evaluated. Plant response ratings, summarized in Table B, are based on a scale of 0 to 100 where 0 is no effect and 100 is complete control. A dash (-) response means no test result.
# [6] = tested on: lambsquarters (Chenopodium album); assay: Test B preemergence
# Description: as §2, §3
# [7] = tested on: rice (Oryza saliva); assay: Test B preemergence
# Description: as §2, §3
# [8] = tested on: pigweed (Amaranthus retroflexus); assay: Test B preemergence
# Description: as §2, §3
# [9] = tested on: morning glory (Ipomoea hederacea); assay: Test B preemergence
# Description: as §2, §3
# [10] = tested on: corn (Zea mays); assay: Test B preemergence
# Description: as §2, §3
# [11] = tested on: crabgrass (Digitaria sanguinalis); assay: Test B preemergence
# Description: as §2, §3
# [12] = tested on: giant foxtail (Setaria faberii); assay: Test B preemergence
# Description: as §2, §3
# [13] = tested on: Surinam grass (Brachiaria decumbens); assay: Test B preemergence
# Description: as §2, §3
# [14] = tested on: velvetleaf (Abutilon theophrasti); assay: Test B preemergence
# Description: as §2, §3
# [15] = tested on: cocklebur (Xanthium strumarium); assay: Test B preemergence
# Description: as §2, §3
# [16] = tested on: barnyardgrass (Echinochloa crus-galli); assay: Test B postemergence
# Description: as §2, §3
# [17] = tested on: lambsquarters (Chenopodium album); assay: Test B postemergence
# Description: as §2, §3
# [18] = tested on: blackgrass (Alopecurus myosuroides); assay: Test B postemergence
# Description: as §2, §3
# [19] = tested on: wild oat (Avena fatua); assay: Test B postemergence
# Description: as §2, §3
# [20] = tested on: pigweed (Amaranthus retroflexus); assay: Test B postemergence
# Description: as §2, §3
# [21] = tested on: morning glory (Ipomoea hederacea); assay: Test B postemergence
# Description: as §2, §3
# [22] = tested on: corn (Zea mays); assay: Test B postemergence
# Description: as §2, §3
# [23] = tested on: crabgrass (Digitaria sanguinalis); assay: Test B postemergence
# Description: as §2, §3
# [24] = tested on: giant foxtail (Setaria faberii); assay: Test B postemergence
# Description: as §2, §3
# [25] = tested on: Surinam grass (Brachiaria decumbens); assay: Test B postemergence
# Description: as §2, §3
# [26] = tested on: velvetleaf (Abutilon theophrasti); assay: Test B postemergence
# Description: as §2, §3
# [27] = tested on: wheat (Triticum aestivum); assay: Test B postemergence
# Description: as §2, §3
# [28] = tested on: cocklebur (Xanthium strumarium); assay: Test B postemergence
# Description: as §2, §3
# [29] = Preemergence, Rate 500 g/ha, scale 0 to 100, 0 no effect, 100 complete control
# [30] = preemergence, Rate 125 g/ha, scale of 0 to 100 where 0 is no effect and 100 is complete control, 13 to 15 days
# [31] = Rate 125 g/ha, scale 0 to 100, 0 no effect, 100 complete control
# [32] = Rate 500 g/ha, scale 0 to 100, 0 is no effect, 100 is complete control, 13 to 15 days
# [33] = Rate 500 g/ha, scale 0 (no effect) to 100 (complete control), 13 to 15 days
smiles,measurement,setting,value
COc1cc(N2CCC(n3ccc(C(C)(C)C)n3)C2=O)cc2ccccc12 (stereo not drawn) [Compound 136],Barnyardgrass plant response rating,[1],0
same,"Plant response rating, Barnyardgrass",[1]; Rate 125 g/ha,0
same,"Plant response rating, Barnyardgrass",[1]; Rate 250 g/ha,0
same,"Plant response rating (scale 0 to 100), Barnyardgrass",[1],0
same,Flatsedge plant response rating,[2],0
same,"Plant response rating, Flatsedge",[2]; Rate 125 g/ha,0
same,"Plant response rating, Flatsedge",[2]; Rate 250 g/ha,0
same,"Plant response rating (scale 0 to 100), Flatsedge",[2],0
same,Rice plant response rating,[3],0
same,"Plant response rating, Rice",[3]; Rate 125 g/ha,0
same,"Plant response rating, Rice",[3]; Rate 250 g/ha,0
same,"Plant response rating (scale 0 to 100), Rice",[3],0
same,Ducksalad plant response rating,[4],0
same,"Plant response rating, Ducksalad",[4]; Rate 125 g/ha,0
same,"Plant response rating, Ducksalad",[4]; Rate 250 g/ha,0
same,"Plant response rating (scale 0 to 100), Ducksalad",[4],0
same,"Plant response rating, Barnyardgrass",[5]; [29],0
same,"Plant response rating, Barnyardgrass",[5]; [30],0
same,"Plant response rating, Lambsquarters",[6]; [29],100
same,"Plant response rating, Lambsquarters",[6]; [30],100
same,"Plant response rating, Rice",[7]; [29],0
same,"Plant response rating, Rice",[7]; [30],0
same,"Plant response rating, Pigweed",[8]; [29],60
same,"Plant response rating, Pigweed",[8]; [30],0
same,"Plant response rating, Morningglory",[9]; [29],0
same,"Plant response rating, Morningglory",[9]; [30],0
same,"Plant response rating, Corn",[10]; [29],0
same,"Plant response rating, Corn",[10]; [30],0
same,"Plant response rating, Crabgrass",[11]; [29],70
same,"Plant response rating, Crabgrass",[11]; [30],0
same,"Plant response rating, Foxtail, Giant",[12]; [29],0
same,"Plant response rating, Foxtail, Giant",[12]; [30],0
same,"Plant response rating, Surinam grass",[13]; [29],0
same,"Plant response rating, Surinam grass",[13]; [30],0
same,"Plant response rating, Velvetleaf",[14]; [29],0
same,"Plant response rating, Velvetleaf",[14]; [30],0
same,"Plant response rating, Cocklebur",[15]; [29],0
same,"Plant response rating, Cocklebur",[15]; [30],0
same,"Plant response rating, Barnyardgrass",[16]; [31],0
same,"Plant response rating, Barnyardgrass",[16]; [32],0
same,"Plant response rating, Lambsquarters",[17]; [31],0
same,"Plant response rating, Blackgrass",[18]; [31],0
same,"Plant response rating, Blackgrass",[18]; [32],0
same,"Plant response rating, Wild Oat",[19]; [31],0
same,"Plant response rating, Pigweed",[20]; [31],0
same,"Plant response rating, Morningglory",[21]; [31],0
same,"Plant response rating, Corn",[22]; [31],0
same,"Plant response rating, Corn",[22]; [32],0
same,"Plant response rating, Crabgrass",[23]; [31],0
same,"Plant response rating, Foxtail, Giant",[24]; [31],0
same,"Plant response rating, Surinam grass",[25]; [31],0
same,"Plant response rating, Surinam grass",[25]; [32],0
same,"Plant response rating, Velvetleaf",[26]; [31],0
same,"Plant response rating, Wheat",[27]; [31],0
same,"Plant response rating, Cocklebur",[28]; [31],0
same,"Plant response rating, Cocklebur",[28]; [32],0
CC(C)(C)c1ccn(C2CCN(c3ccc(F)c(C(F)(F)F)c3)C2=O)n1 (stereo not drawn) [Compound 146],Barnyardgrass plant response rating,[1],100
same,"Plant response rating, Barnyardgrass",[1]; Rate 125 g/ha,100
same,"Plant response rating, Barnyardgrass",[1]; Rate 250 g/ha,100
same,"Plant response rating (scale 0 to 100), Barnyardgrass",[1],75
same,Flatsedge plant response rating,[2],95
same,"Plant response rating, Flatsedge",[2]; Rate 125 g/ha,95
same,"Plant response rating, Flatsedge",[2]; Rate 250 g/ha,95
same,"Plant response rating (scale 0 to 100), Flatsedge",[2],60
same,Rice plant response rating,[3],85
same,"Plant response rating, Rice",[3]; Rate 125 g/ha,50
same,"Plant response rating, Rice",[3]; Rate 250 g/ha,50
same,"Plant response rating (scale 0 to 100), Rice",[3],15
same,Ducksalad plant response rating,[4],90
same,"Plant response rating, Ducksalad",[4]; Rate 125 g/ha,65
same,"Plant response rating, Ducksalad",[4]; Rate 250 g/ha,80
same,"Plant response rating (scale 0 to 100), Ducksalad",[4],40
same,"Plant response rating, Barnyardgrass",[5]; [29],100
same,"Plant response rating, Barnyardgrass",[5]; [30],90
same,"Plant response rating, Lambsquarters",[6]; [29],100
same,"Plant response rating, Lambsquarters",[6]; [30],100
same,"Plant response rating, Rice",[7]; [29],0
same,"Plant response rating, Rice",[7]; [30],0
same,"Plant response rating, Pigweed",[8]; [29],100
same,"Plant response rating, Pigweed",[8]; [30],100
same,"Plant response rating, Morningglory",[9]; [29],40
same,"Plant response rating, Morningglory",[9]; [30],0
same,"Plant response rating, Corn",[10]; [29],0
same,"Plant response rating, Corn",[10]; [30],0
same,"Plant response rating, Crabgrass",[11]; [29],100
same,"Plant response rating, Crabgrass",[11]; [30],100
same,"Plant response rating, Foxtail, Giant",[12]; [29],100
same,"Plant response rating, Foxtail, Giant",[12]; [30],100
same,"Plant response rating, Surinam grass",[13]; [29],100
same,"Plant response rating, Surinam grass",[13]; [30],40
same,"Plant response rating, Velvetleaf",[14]; [29],20
same,"Plant response rating, Velvetleaf",[14]; [30],0
same,"Plant response rating, Cocklebur",[15]; [29],0
same,"Plant response rating, Cocklebur",[15]; [30],0
same,"Plant response rating, Barnyardgrass",[16]; [31],0
same,"Plant response rating, Barnyardgrass",[16]; [33],90
same,"Plant response rating, Lambsquarters",[17]; [31],80
same,"Plant response rating, Lambsquarters",[17]; [33],100
same,"Plant response rating, Blackgrass",[18]; [31],0
same,"Plant response rating, Blackgrass",[18]; [33],0
same,"Plant response rating, Wild Oat",[19]; [31],0
same,"Plant response rating, Wild Oat",[19]; [33],0
same,"Plant response rating, Pigweed",[20]; [31],0
same,"Plant response rating, Pigweed",[20]; [33],70
same,"Plant response rating, Morningglory",[21]; [31],0
same,"Plant response rating, Morningglory",[21]; [33],0
same,"Plant response rating, Corn",[22]; [31],0
same,"Plant response rating, Corn",[22]; [33],0
same,"Plant response rating, Crabgrass",[23]; [31],0
same,"Plant response rating, Crabgrass",[23]; [33],60
same,"Plant response rating, Foxtail, Giant",[24]; [31],0
same,"Plant response rating, Foxtail, Giant",[24]; [33],70
same,"Plant response rating, Surinam grass",[25]; [31],0
same,"Plant response rating, Surinam grass",[25]; [33],0
same,"Plant response rating, Velvetleaf",[26]; [31],0
same,"Plant response rating, Velvetleaf",[26]; [33],0
same,"Plant response rating, Wheat",[27]; [31],0
same,"Plant response rating, Wheat",[27]; [33],0
same,"Plant response rating, Cocklebur",[28]; [31],0
same,"Plant response rating, Cocklebur",[28]; [33],0
